Patent US20200299791A1, “Process for the Production of a Saccharide Product from an Aqueous Solution” (Avantium Knowledge Centre B.V., priority 2015, published 2020)

Key:
[1] = Partition of model by-product compounds between Carrier liquid 2 (poly-alpha-olefin) and organic solvent; assay type: physicochemical; details: log {[compound]carrier liquid/[compound]organic solvent}, 2 mL solvent + 3 mL carrier liquid solution, shaken 60 min at room temperature
Experimental: (§1) Six compounds were dissolved in two different carrier liquids. The six compounds were exemplary for the by-products that may be obtained when wood is subjected to hydrolysis by the reaction of concentrated hydrochloric acid and that may be obtained when the hydrolyzate thus obtained in treated with the carrier liquid. The compounds were • a) betulin, a triterpene having a pentacyclic structure and two hydroxyl groups, • b) abietic acid, i.e. a diterpene compound derived from four isoprene units and a having one carboxylic acid group, • c) linoleic acid, a fatty aid having 18 carbon atoms and two unsaturated bonds, • d) 1-eicosanol, a linear alkanol having 20 carbon atoms, • e) sitosterol, a phytosterol with a chemical structure similar to cholesterol, and • f) limonene, a cyclic terpene having two unsaturated bonds.
Carrier liquid 2 is a poly-alpha-olefin having a kinematic viscosity of 1240 mm^2/s at 40° C. and a kinematic viscosity of 100 mm^2/s at 100° C. (ASTM D445). It has a flash point of 283° C. (ASTM D92). Carrier liquid 2 is immiscible with water.
(§2) In each experiment, 2 mL of an organic solvent was added to 3 mL of the carrier liquid solutions. The admixture obtained were shaken for 60 min at room temperature. The concentration of each compound in each of the carrier liquids was determined and the partition coefficient was calculated. By partition coefficient P is understood the ratio of concentrations of each of the compounds in an organic solvent and in a carrier liquid. The partition coefficient is expressed as
(§3) log P, being log {[compound]carrier liquid/[compound]organic solvent}.
(§4) The partition coefficients are shown in Table 2 for Carrier liquid 1 and in Table 3 for Carrier liquid 2.

[2] = Partition of model by-product compounds between Carrier liquid 1 (paraffin oil) and organic solvent; assay type: physicochemical; details: log {[compound]carrier liquid/[compound]organic solvent}, 2 mL solvent + 3 mL carrier liquid solution, shaken 60 min at room temperature
Experimental: as §1
Carrier liquid 1 is a paraffin oil with a boiling range of 388 to 709° C. and a kinematic viscosity of 481 mm^2/s at 40° C. and a kinematic viscosity of about 31 at 100° C. (ASTM D445). Carrier liquid 1 is immiscible with water.
as §2, §3, §4

SMILES	Partition coefficient with Carrier liquid 2, Log P ([1]; Exp. No. 4, solvent methanol)	Partition coefficient with Carrier liquid 2, Log P ([1]; Exp. No. 5, solvent butanol)	Partition coefficient with Carrier liquid 2, Log P ([1]; Exp. No. 6, solvent acetone)	Partition coefficient with Carrier liquid 1, Log P ([2]; Exp. No. 1, solvent methanol)	Partition coefficient with Carrier liquid 1, Log P ([2]; Exp. No. 2, solvent butanol)	Partition coefficient with Carrier liquid 1, Log P ([2]; Exp. No. 3, solvent acetone)
C=C(C)[C@@H]1CC[C@]2(CO)CC[C@]3(C)[C@H](CC[C@@H]4[C@@]5(C)CC[C@H](O)C(C)(C)[C@@H]5CC[C@]43C)[C@@H]12 [betulin]	−0.36	−1.09	−1.03			
CC[C@H](CC[C@@H](C)[C@H]1CC[C@H]2[C@@H]3CC=C4C[C@@H](O)CC[C@]4(C)[C@H]3CC[C@]12C)C(C)C [sitosterol]	−0.05	−0.63	−0.10	0.35	−0.45	0.16
